Results from publication PMC6934184, “Selective DNA-PKcs inhibition extends the therapeutic index of localized radiotherapy and chemotherapy” (The Journal of Clinical Investigation, 2019).

Target: T1, DMPK (Homo sapiens, UniProt Q09013)
T1 construct: purchased Thermo Fisher Scientific (Life Technologies) SelectScreen
Assay: SelectScreen LanthaScreen
Assay type: binding
Conditions: read-out: % displacement
Summary of the method: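 Percent values come from Thermo SelectScreen profiling of NU5455, combining activity and binding assays. CSF1R was run in Z'LYTE format at Km app ATP, and CAMK1 in Adapta format with ATP listed at 10.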

T1 sequence (Q09013 whole entry): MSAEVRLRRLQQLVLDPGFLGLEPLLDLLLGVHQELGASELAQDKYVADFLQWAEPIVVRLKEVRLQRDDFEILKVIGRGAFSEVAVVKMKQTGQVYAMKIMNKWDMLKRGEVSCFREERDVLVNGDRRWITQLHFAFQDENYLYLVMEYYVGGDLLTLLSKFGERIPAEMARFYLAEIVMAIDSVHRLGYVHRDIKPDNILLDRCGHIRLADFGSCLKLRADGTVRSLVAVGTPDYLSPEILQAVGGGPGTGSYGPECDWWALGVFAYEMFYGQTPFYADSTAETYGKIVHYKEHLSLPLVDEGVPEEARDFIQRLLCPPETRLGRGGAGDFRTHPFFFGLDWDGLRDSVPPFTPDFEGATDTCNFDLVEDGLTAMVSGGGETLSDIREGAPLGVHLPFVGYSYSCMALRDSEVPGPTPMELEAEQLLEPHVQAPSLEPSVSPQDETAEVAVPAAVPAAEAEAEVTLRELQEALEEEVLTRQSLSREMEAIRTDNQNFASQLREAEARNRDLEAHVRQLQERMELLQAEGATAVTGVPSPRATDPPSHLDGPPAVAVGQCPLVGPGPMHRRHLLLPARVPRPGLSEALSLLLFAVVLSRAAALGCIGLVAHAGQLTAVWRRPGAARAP

Structure (SMILES): CN(C(=O)CN1CCOCC1)c1ccc2sc3c(-c4cccc5c(=O)cc(N6CC7CCC(C6)O7)oc45)cccc3c2c1 [NU5455]
- inhibition at 1 µM: -1.5%
